Converted amounts (≈) assume the structure as drawn. Where two headings read alike, the source gives them in different places.
How the values were obtained:
[1] = tested on: O. gutturosa adult male worms; test: O. gutturosa adult worm ex vivo assay, motility; format: cell-based, Onchocerca gutturosa
Protocol: (§1) Activity against O. gutturosa adult male worms was determined using reported procedures.[7] The EC50 values were calculated using Microsoft Office Excel (2010) data analysis software. The tested compound is considered active when a motility reduction of ≥50% is observed by comparison to the untreated controls. O. gutturosa adult male worms were obtained postmortem from freshly slaughtered cattle. The worms were dissected from the nuchal ligament connective tissues of naturally infected cattle in Gambia, West Africa; the material was purchased from the International Trypanotolerance Centre, Banjul, from local butchers for use in this study. The adult worms were transferred individually to each well of a sterile 24-well (2 mL) plate (Thermo Fisher Scientific, UK) and maintained for at least 24 h in culture before use. The medium used was a minimum essential medium (MEM) with Earl’s salts and L-glutamine (Life Technologies Ltd., UK) supplemented with 10% heat inactivated newborn calf serum (Life Technologies Ltd., UK), 200 units/mL penicillin, 200 μg/mL streptomycin, and 0.5 μg/mL amphotericin B (Life Technologies Ltd., UK). Only normally active worms were used for the test, and all assays were conducted at 37 °C and 5% CO2. The positive control drug used was Immiticide (melarsomine dihydrochloride, Merial, USA). Known amounts of compounds were solubilized in 1 mL of DMSO. All stock solutions were allowed to stand at room temperature prior to use. The test items (four worms/drug concentration) were compared to untreated controls (six worms) and the positive control (two worms/drug concentration). Drug efficacy was assessed by the measurement of mean worm motility scores on a scale of 0 (immotile) to 10 (maximum) every 24 h, terminating at 120 h, using an Olympus inverted microscope. The results are reported as a percentage of the maximum score obtainable (100%) by calculating the motility index scores. The test drug is considered active when a motility reduction of ≥50% is observed by comparison to the untreated controls. […] In addition, biochemical evaluation of worm viability was assessed using MTT/formazan colorimetry. The MTT assay was carried out after the last motility reading (120 h). Single intact worms were placed in each well of a 48-well plate (Thermo Fisher Scientific, UK) containing 0.5 mL of 0.5 mg/mL MTT (Sigma, UK) in PBS solution and then incubated for 30 min at 37 °C. The worms were removed, blotted carefully, and individually transferred to separate wells of a 96-well microtiter plate, each containing 200 μL of DMSO to solubilize the formazan. After 1 h, the plate was gently agitated to disperse the color evenly and the absorbance value (optical density, OD) of the resulting formazan solution was determined at 490 nm using an absorbance microplate reader (Biotek ELx800, Thermo Fisher Scientific, UK). The results are expressed as the mean OD per drug concentration. Inhibition of formazan formation is correlated with worm damage or death.
Data S1. Onchocerca gutturosa adult male worms EC 50 Curves
Plotted using Graph Pad Prism 7.03, least square original fit, sigmoidal, 4PL
The measurement of mean worm motility every 24 h, terminating at 120 h, serial 1 in 4 drug dilutions to find
activity endpoint and produce EC50 values (geomean, n=2) for motility reduction. (4 worms per drug […]

[2] = tested on: O. gutturosa adult male worms; test: O. gutturosa adult worm ex vivo assay, MTT/formazan viability; format: cell-based, Onchocerca gutturosa; conditions: supplement, SD in brackets in the PDF table, read-out: O. gutturosa EC50 (uM) MTT viability inhibition
Protocol: as §1

[3] = Kinetic solubility measurement; format: physicochemical; conditions: 10 mM DMSO stock solutions
Protocol: Kinetic Solubility Measurement: The standard kinetic solubility assay runs on […] concentration range using 10 mM DMSO stock solutions for plating. Single point calibration assay runs in duplicates. Concentration of standards: […] DMSO solutions prepared by diluting 10 mM stock, solution with DMSO. Concentration of samples: 200 µM, 4 µl 10 mM DMSO stock solution diluted with the appropriate buffer to […]. DMSO content:
2%. Buffers: pH=7.4 (0.1M Potassium phosphate buffer, diluted from Sigma 1M P3619-1GA to 0.1 M with MilliQ water), pH=2.2 (0.1M- NaCl pH adjusted with 0.1N HCL), pH=6.8 (0.1M - KH2PO4/K2HPO4), pH=5 (4 .04g of NaOH (Pellets), 8.65g of Glacial Acetic Acid, 11.874g of NaCl. In in 1 liter water. Adjusted to pH to 5 with either 1N NaOH or 1N HCl). The controls were plated from the standard 10 mM DMSO stock and run on the standard concentration (200µM) range of the assay. Incubation time: 24 hours shaking at […] in Millipore Multiscreen HTS filter plate for Aqueous Solubility Assay (MSSLBPC50), on room temperature.
After incubation time filtration with positive pressure manifold was performed. […]

[4] = LogD measurement (octanol-water); format: physicochemical
Protocol: LogD Measurement: Measurement of octanol-water distribution coefficient of samples using a […]
stock solutions for plating. Aqueous Phase: 100mM Buffer, pH=7.4 (0.1M Potassium phosphate buffer, diluted from Sigma 1M P3619-1GA to 0.1 M with MilliQ water), pH=2.2 (0.1M- NaCl pH adjusted with 0.1N HCL), pH=6.8 (0.1M - KH2PO4/K2HPO4), pH=5 (4 .04g of NaOH (Pellets), 8.65g of Glacial Acetic Acid, 11.874g of NaCl. In in 1 liter water. Adjusted to pH to 5 with either 1N NaOH or 1N HCl); Organic Phase: 1-Octanol (O021). Sample Concentration:
1000uM, […] 10 mM DMSO stock solution diluted in […] of organic Phase and […] of aqueous Phase. DMSO content: 10%. The controls were plated from the standard 10 mM DMSO stock and run on the standard concentration ([…]) range of the assay. Incubation time:
Sonication for 30 minutes followed by 24 hours shaking at 750 rpm in 96 deep well plate (VWR

[5] = Liver S9 metabolic stability assay, rat; format: in vitro ADME; conditions: 3 μM, 60 min
Protocol: (§2) Liver S9 Metabolic Stability Assay: Incubations were performed at 37 °C in a Dubnoff Shaking water bath using 2 mL 96-well incubation plates. Rat and human S9 protein concentrations were 0.75 mg/ml and 1.2 mg/ml, respectively. The final concentrations of NADPH, UDPGA, and GSH were 1, 0.5, and 2.5 mM, and the final concentration of PAPS was 0.05 mg/ml. Substrate concentrations were 3µM, incubation time was 60 minutes, and all tests were done in triplicate. The incubation was conducted in 200 mM Tris buffer containing 2 mM magnesium chloride, pH=7.4 and the total incubation volume was 0.5 ml. Samples were analysed via LC-MS/MS and reported as percentage remaining after incubation for 60 minutes. […]

[6] = Liver S9 metabolic stability assay, human; format: in vitro ADME; conditions: 3 μM, 60 min
Protocol: as §2

[7] = Onchocerca gutturosa, read-out: O. gutturosa EC50 μM (SD), ex vivo adult worm motility reduction, SD in brackets
[8] = Onchocerca gutturosa, read-out: O. gutturosa EC50 (uM) motility inhibition, supplement, SD in brackets in the PDF table
[9] = supplement, read-out: measured logD

Row | Compound | EC50 ([1]; adult worm motility, bound stated, read-out: O. gutturosa EC50) [µM] | EC50 ([1]; supplement, SD in brackets in the PDF table, read-out: O. gutturosa EC50 (uM) motility inhibition) [µM] | EC50 [2] [µM] | solubility kinetic at 24 h [3] [µM] | logD ([4]; pH 7.4) | measured logD ([4]; supplement) | Rat S9 metabolic stability [5] [% remaining] | Human S9 metabolic stability [6] [% remaining] | EC50 [1, 7] [µM] | EC50 [1, 8] [µM] | EC50 ([2]; Onchocerca gutturosa) [µM] | logD at 24 h [4, 9] | logD at 24 h ([4]; pH 7.4, read-out: logD)
1 | 3-(3-Methyl-2-pyridyl)-N-(5-pyrrolidin-1-yl-2-pyridyl)-1,2,4-thiadiazol-5-amine [Compound 21] | < 0.1 | 0.044 | 0.14 | 2.17 | 2.65 | 2.65 | 61 | 86 | – | – | – | – | –
2 | Cc1cccnc1Nc1nc(-c2ccc(OC3CCOCC3)cn2)no1 [Compound 6, N-(3-Methylpyridin-2-yl)-3-(5-((tetrahydro-2H-pyran-4-yl)oxy)pyridin-2-yl)-1,2,4-oxadiazol-5-amine] | – | – | 4.06 | 57.5 (≈ 20.3 µg/mL) | – | – | 85 | 98 | 0.07 | 0.072 | 4.1 | 1.7 | –
3 | c1ccc(Nc2nc(-c3ccccn3)ns2)nc1 [Compound 9, N,3-Di(pyridin-2-yl)-1,2,4-thiadiazol-5-amine] | – | – | – | 8.2 (≈ 2.09 µg/mL) | – | – | 83 | 83 | 0.16 | 0.155 | 1.1 | 1.8 | 1.8
4 | Cc1cccnc1Nc1nc(-c2ccc(C#N)cn2)ns1 [Compound 13, 6-(5-((3-Methylpyridin-2-yl)amino)-1,2,4-thiadiazol-3-yl)nicotinonitrile] | – | – | – | 0.55 (≈ 0.162 µg/mL) | – | – | 73 | 66 | 5.8 | – | 20 | 2.75 | 2.75
5 | Cc1cccnc1Nc1nc(-c2cc(C#N)ccn2)ns1 [Compound 14] | – | – | – | 2.55 (≈ 0.751 µg/mL) | – | – | 78 | 65 | 3.1 | – | 4.5 | 2 | 2
6 | Cc1cccnc1Nc1nc(-c2cc(C(=O)N(C)C)ccn2)ns1 [Compound 16] | – | – | – | 26.5 (≈ 9.02 µg/mL) | – | – | 78 | 89 | 3.28 | – | 1.1 | 1.9 | 1.9
7 | Cc1cccnc1Nc1nc(-c2cc(C3CCN(C)CC3)ccn2)ns1 [Compound 22] | – | – | – | 184 (≈ 67.5 µg/mL) | – | – | 81 | 78 | 0.2 | 0.198 | 13.1 | 2 | 2
8 | CN1CCC(Oc2ccc(Nc3nc(-c4ccccn4)ns3)nc2)CC1 [Compound 36, N-(5-((1-Methylpiperidin-4-yl)oxy)pyridin-2-yl)-3-(pyridin-2-yl)-1,2,4-thiadiazol-5-amine] | – | – | – | 193 (≈ 71.3 µg/mL) | – | – | 99 | 88 | 1.12 | – | – | 1.7 | 1.7
9 | CC(=O)N(C)c1cc(C(F)(F)F)cnc1Nc1nc(-c2ccccn2)ns1 [Compound 53] | – | – | – | 4.05 (≈ 1.6 µg/mL) | – | – | – | – | 0.05 | 0.047 | 0.15 | 2.2 | 2.2
10 | CC(C)Oc1ccc(-c2nsc(Nc3ncc(C(F)(F)F)cc3C(=O)N(C)C)n2)nc1 [Compound 57] | – | – | – | 3.27 (≈ 1.48 µg/mL) | – | – | – | – | 0.58 | 0.578 | 1.3 | 3.2 | 3.2
11 | CNC(=O)c1cccnc1Nc1nc(-c2ccc(OC(C)C)cn2)ns1 [Compound 60, 2-((3-(5-Isopropoxypyridin-2-yl)-1,2,4-thiadiazol-5-yl)amino)-N-methylnicotinamide] | – | – | – | 10.2 (≈ 3.76 µg/mL) | – | – | – | – | 0.67 | – | 2.4 | 1.8 | 1.8
